Data taken from US7691848B2, “Pyrrolobenzodiazepine arylcarboxamides and derivatives thereof as follicle-stimulating hormone receptor antagonists” (Wyeth, priority 2005, dated 2010).

Assays:
human FSH receptor = molecular target: T1, human FSH receptor (Homo sapiens, UniProt P23945); assay: Follicle-Stimulating Hormone Receptor-Dependent Cre-Luciferase Reporter Gene Assay (CHO FSH-R 6CRE-Luc cells); type: cell-based; details: for IC50: dose-response format, in presence of EC50 of purified human FSH; for inhibition at 30 µM: 2-dose format, concentration in parentheses 30 μM, inhibition of the response to EC50 of FSH
T1 construct: host or cells: CHO-K1 (CHO FSH-R 6CRE-Luc, 1D7 cells)
T1 sequence (P23945 18-695): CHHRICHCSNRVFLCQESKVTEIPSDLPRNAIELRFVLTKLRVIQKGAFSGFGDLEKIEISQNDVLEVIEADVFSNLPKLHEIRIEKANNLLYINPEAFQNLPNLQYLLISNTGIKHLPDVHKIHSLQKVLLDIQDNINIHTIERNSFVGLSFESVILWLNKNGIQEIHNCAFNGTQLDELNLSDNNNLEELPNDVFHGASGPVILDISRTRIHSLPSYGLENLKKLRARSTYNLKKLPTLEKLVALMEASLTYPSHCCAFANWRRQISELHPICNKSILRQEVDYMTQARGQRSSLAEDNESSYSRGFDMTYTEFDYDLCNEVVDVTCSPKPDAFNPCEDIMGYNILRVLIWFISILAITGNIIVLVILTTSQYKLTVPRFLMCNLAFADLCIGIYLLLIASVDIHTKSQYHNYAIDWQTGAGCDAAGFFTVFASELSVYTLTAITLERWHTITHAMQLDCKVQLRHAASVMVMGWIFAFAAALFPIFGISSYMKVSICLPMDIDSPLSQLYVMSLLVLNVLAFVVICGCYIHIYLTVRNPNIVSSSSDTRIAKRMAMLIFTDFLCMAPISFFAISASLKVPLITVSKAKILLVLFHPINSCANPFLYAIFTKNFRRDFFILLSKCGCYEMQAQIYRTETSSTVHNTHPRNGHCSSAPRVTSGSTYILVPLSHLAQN
In short: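 CHO-K1 cells stably expressing human FSH receptor and a 6×CRE-driven luciferase reporter; compounds in growth medium with 0.2% DMSO, incubated 4 h at 37 °C. Luciferase measured by chemiluminescence (RLU/sec/well); 2-dose results given as percent inhibition of the response to an EC50 concentration of FSH.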

SMILES	IC50 (human FSH receptor) [µM]	melting point [°C]	inhibition at 30 µM (human FSH receptor) [%]
COc1cc(C(=O)N2Cc3ccc(C(=O)NCc4ccccc4C(F)(F)F)n3Cc3ccccc32)ccc1-c1ccccc1C [Example 39, 10-[(2-METHOXY-2′-METHYL-1,1′-BIPHENYL-4-YL)CARBONYL]-N-[2-(TRIFLUOROMETHYL)BENZYL]-10,11-DIHYDRO-5H-PYRROLO[2,1-C][1,4]BENZODIAZEPINE-3-CARBOXAMIDE]	> 30	165 to 167	
Cc1ccc(CNC(=O)c2ccc3n2Cc2ccccc2N(C(=O)CSc2ccc(Br)cc2)C3)cc1 [Example 83, 10-{[(4-BROMOPHENYL)THIO]ACETYL}-N-(4-METHYLBENZYL)-10,11-DIHYDRO-5H-PYRROLO[2,1-C][1,4]BENZODIAZEPINE-3-CARBOXAMIDE]		131 to 132	24
O=C(NCc1cccc(C(F)(F)F)c1)c1ccc2n1Cc1ccccc1N(C(=O)COc1ccc(Cl)cc1)C2 [Example 72, 10-[(4-CHLOROPHENOXY)ACETYL]-N-[3-(TRIFLUOROMETHYL)BENZYL]-10,11-DIHYDRO-5H-PYRROLO[2,1-C][1,4]BENZODIAZEPINE-3-CARBOXAMIDE]	> 30	143 to 145	
Cc1ccc(CNC(=O)c2ccc3n2Cc2ccccc2N(C(=O)COc2ccc(Cl)cc2)C3)cc1 [Example 70, 10-[(4-CHLOROPHENOXY)ACETYL]-N-(4-METHYLBENZYL)-10,11-DIHYDRO-5H-PYRROLO[2,1-C][1,4]BENZODIAZEPINE-3-CARBOXAMIDE]		174 to 176	17
COc1ccc(CCNC(=O)c2ccc3n2Cc2ccccc2N(C(=O)c2ccc(-c4ccccc4C)c(C)c2)C3)cc1OC [Example 28, N-[2-(3,4-DIMETHOXYPHENYL)ETHYL]-10-[(2,2′-DIMETHYL-1,1′-BIPHENYL-4-YL)CARBONYL]-10,11- DIHYDRO-5H-PYRROLO[2,1-C][1,4]BENZODIAZEPINE-3-CARBOXAMIDE]	> 30	130 to 136	
COc1cc(C(=O)N2Cc3ccc(C(=O)NCC(O)c4ccccc4)n3Cc3ccccc32)ccc1-c1ccccc1C (stereo not drawn) [Example 63]	> 30	214 to 215	
CN(C)c1cccc(NC(=O)c2ccc3n2Cc2ccccc2N(C(=O)COc2ccc(Cl)cc2)C3)c1 [Example 101, 10-[(4-CHLOROPHENOXY)ACETYL]-N-[3-(DIMETHYLAMINO)PHENYL]-10,11-DIHYDRO-5H-PYRROLO[2,1-C][1,4]BENZODIAZEPINE-3-CARBOXAMIDE]	> 30	133 to 136	
Cc1ccccc1-c1ccc(C(=O)N2Cc3ccc(C(=O)NCc4ccc(C(=O)c5ccccc5)cc4)n3Cc3ccccc32)cc1C [Example 88]	> 30	148 to 150	
O=C(NC1CCCc2ccccc21)c1ccc2n1Cc1ccccc1N(C(=O)COc1ccc(Cl)cc1)C2 (stereo not drawn) [Example 94, 10-[(4-CHLOROPHENOXY)ACETYL]-N-(1,2,3,4-TETRAHYDRONAPHTHALEN-1-YL)-10,11-DIHYDRO-5H-PYRROLO[2,1-C][1,4]BENZODIAZEPINE-3-CARBOXAMIDE]	> 30	199 to 200	
COc1cc(C(=O)N2Cc3ccc(C(=O)NCc4ccc(OC(F)(F)F)cc4)n3Cc3ccccc32)ccc1-c1ccccc1C [Example 45, 10-[(2-METHOXY-2′-METHYL-1,1′-BIPHENYL-4-YL)CARBONYL]-N-[4-(TRIFLUOROMETHOXY)BENZYL]-10,11-DIHYDRO-5H-PYRROLO[2,1-C][1,4]BENZODIAZEPINE-3-CARBOXAMIDE]	> 30	145 to 149	
Cc1cccc(CNC(=O)c2ccc3n2Cc2ccccc2N(C(=O)COc2ccc(Cl)cc2)C3)c1 [Example 71, 10-[(4-CHLOROPHENOXY)ACETYL]-N-(3-METHYLBENZYL)-10,11-DIHYDRO-5H-PYRROLO[2,1-C][1,4]BENZODIAZEPINE-3-CARBOXAMIDE]		130 to 131	7
Cc1ccccc1-c1ccc(C(=O)N2Cc3ccc(C(=O)NC4CCc5ccccc54)n3Cc3ccccc32)cc1C (stereo not drawn) [Example 92]	> 30	122 to 124	
